Among the data in US9382228B2 (priority 2013, dated 2016) are IC50 values, retold here.

Experiment [1] has as its target T1, unphosphorylated c-FMS kinase (uFMS, Seq. ID no. 1) (Homo sapiens, UniProt P07333).
T1 sequence (P07333 538-972): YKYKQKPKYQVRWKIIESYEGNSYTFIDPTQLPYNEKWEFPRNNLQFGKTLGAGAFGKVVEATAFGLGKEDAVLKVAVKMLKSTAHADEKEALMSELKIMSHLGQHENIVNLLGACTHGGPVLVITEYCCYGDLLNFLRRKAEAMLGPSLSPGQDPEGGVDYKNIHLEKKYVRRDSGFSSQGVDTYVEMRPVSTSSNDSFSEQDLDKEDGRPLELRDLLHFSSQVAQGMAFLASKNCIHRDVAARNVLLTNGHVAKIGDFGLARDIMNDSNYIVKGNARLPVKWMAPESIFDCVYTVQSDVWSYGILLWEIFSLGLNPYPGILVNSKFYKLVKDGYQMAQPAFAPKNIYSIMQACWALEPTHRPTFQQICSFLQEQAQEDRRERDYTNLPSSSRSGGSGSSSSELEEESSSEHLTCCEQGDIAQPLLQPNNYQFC
Kind of experiment: biochemical. The following applies: uFMS, enzymatic assay, ATP 500 μM.

The target in experiment [2] is unphosphorylated c-KIT kinase (uKIT, Seq. ID no. 2) (Homo sapiens, UniProt P10721). Kind of experiment: biochemical. As to conditions: uKIT, enzymatic assay, ATP 2000 μM.
Experimental: uKit kinase (Seq. ID No. 2) Assay
In this assay, the oxidation of NADH (thus the decrease at A340 nm) was continuously monitored spectrophometrically. […] The inhibition reaction was started by mixing serial diluted test compound with the above reaction mixture. The absorption at 340 nm was monitored continuously for 4 hours at 30° C. on Synergy 2 plate reader (BioTech).
Experiment [3] addresses unphosphorylated PDGFRβ kinase (uPDGFRβ, Seq. ID No. 3) (Homo sapiens, UniProt P09619). Kind of experiment: biochemical. As to conditions: uPDGFRb, enzymatic assay, ATP 500 μM.
Experimental: Unphosphorylated PDGFRβ (uPDGFRβ) Kinase (Seq. ID No. 3) Assay
In this assay, the oxidation of NADH (thus the decrease at A340 nm) was continuously monitored spectrophometrically. […] The inhibition reaction was started by mixing serial diluted test compound with the above reaction mixture. The absorption at 340 nm was monitored continuously for 4 h at 30° C. on a Polarstar Optima or Synergy 2 plate reader. The reaction rate was calculated using the 1.5 to 2.5 h time frame. Percent inhibition was obtained by comparison of reaction rate with that of a control (i.e. with no test compound). IC50 values were calculated from a series of percent inhibition values determined at a range of inhibitor concentrations using software routines as implemented in the GraphPad Prism software package.
The next experiment has as its system osteoclast precursors. Kind of experiment: cells. As to conditions: read-out: Osteoclast assay. It counts as cell-based. Here is the method:
Osteoclast Tartrate-Resistant Acid Phosphatase Assay
Diluted compound was transferred to a 384-well black clear bottom plate. Two-thousand five hundred osteoclast precursors (Lonza, Walkersville, Md.) were added per well in growth media containing Receptor Activator of Nuclear Factor Kappa-beta ligand (RANKL) and M-CSF (R&D Systems, Minneapolis, Minn.). […] Tartrate-resistant acid phosphatase activity in the supernatant samples was determined using an acid phosphatase assay kit (Sigma, St. Louis, Mo.). Absorbance was measured at 550 nm using a plate reader. Data was analyzed using Prism software (Graphpad, San Diego, Calif.) to calculate IC50 values.

The next experiment concerns M-NFS-60 cells. Kind of experiment: cells. As to conditions: 67 h, read-out: M-NFS-60 cell proliferation.

The structures appear in SMILES notation. Where only a bound is given, the exact number is not on record here.

Chain of unphosphorylated c-KIT kinase (uKIT, Seq. ID no. 2) (P10721 with tags, fused parts or gaps): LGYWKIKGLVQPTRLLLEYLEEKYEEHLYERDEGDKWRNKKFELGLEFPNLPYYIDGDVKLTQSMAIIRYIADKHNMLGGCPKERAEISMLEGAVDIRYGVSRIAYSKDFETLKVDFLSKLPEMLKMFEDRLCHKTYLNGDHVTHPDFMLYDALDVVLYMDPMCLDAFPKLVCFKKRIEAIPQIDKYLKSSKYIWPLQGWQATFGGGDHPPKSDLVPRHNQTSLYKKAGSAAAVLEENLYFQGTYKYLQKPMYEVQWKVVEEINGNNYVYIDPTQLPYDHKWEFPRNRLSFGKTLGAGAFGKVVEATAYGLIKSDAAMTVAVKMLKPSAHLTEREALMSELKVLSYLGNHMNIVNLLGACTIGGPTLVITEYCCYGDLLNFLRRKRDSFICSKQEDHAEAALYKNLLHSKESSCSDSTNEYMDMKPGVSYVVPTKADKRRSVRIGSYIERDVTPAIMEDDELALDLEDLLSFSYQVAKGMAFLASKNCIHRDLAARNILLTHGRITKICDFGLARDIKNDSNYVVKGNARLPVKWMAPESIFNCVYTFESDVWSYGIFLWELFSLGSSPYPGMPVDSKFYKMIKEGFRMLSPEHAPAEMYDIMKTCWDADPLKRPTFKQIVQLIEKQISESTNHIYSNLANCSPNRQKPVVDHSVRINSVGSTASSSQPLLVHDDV
Chain of unphosphorylated PDGFRβ kinase (uPDGFRβ, Seq. ID No. 3) (P09619 557-1106): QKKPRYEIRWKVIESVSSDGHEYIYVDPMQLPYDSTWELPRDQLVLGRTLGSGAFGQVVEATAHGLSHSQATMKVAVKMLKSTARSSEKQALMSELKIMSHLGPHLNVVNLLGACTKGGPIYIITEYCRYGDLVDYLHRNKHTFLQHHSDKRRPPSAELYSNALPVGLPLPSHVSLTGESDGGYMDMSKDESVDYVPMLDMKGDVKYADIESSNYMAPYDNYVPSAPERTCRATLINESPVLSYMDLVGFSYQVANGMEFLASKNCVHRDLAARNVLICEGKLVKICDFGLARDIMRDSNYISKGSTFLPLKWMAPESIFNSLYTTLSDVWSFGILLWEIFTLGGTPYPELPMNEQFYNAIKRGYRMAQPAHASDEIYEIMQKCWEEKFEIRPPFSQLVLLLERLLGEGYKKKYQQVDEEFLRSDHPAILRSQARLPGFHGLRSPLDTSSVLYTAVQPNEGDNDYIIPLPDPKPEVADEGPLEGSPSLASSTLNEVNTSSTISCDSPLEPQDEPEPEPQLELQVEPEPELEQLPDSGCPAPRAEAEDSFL
Experimental for M-NFS-60 cells: M-NFS-6 Cell Proliferation Assay
A serial dilution of test compound was dispensed into a 384-well black clear bottom plate (Corning, Corning, N.Y.). Two thousand five hundred cells were added per well in 50 μL complete growth medium. […] IC50 values were calculated from a series of percent inhibition values determined at a range of inhibitor concentrations using software routines as implemented in the GraphPad Prism software package.

On to `CC(C)(C)C(=O)NC(=O)Nc1ccc(Oc2ccnc(-c3ccc(C(F)(F)F)nc3)c2)cn1` [Example 94, N-((5-((6′-(trifluoromethyl)-[2,3′-bipyridin]-4-yl)oxy)pyridin-2-yl)carbamoyl)pivalamide], for which the IC50 in experiment [1] was less than 0.01 µM; in experiment [2] it was more than 1 µM; in experiment [3], more than 1 µM; in the experiment on osteoclast precursors, 0.01 to 0.1 µM; in the experiment on M-NFS-60 cells, 0.01 to 0.1 µM.
Turning to `CC(C)(C)C(=O)NC(=O)Nc1ccc(Oc2ccnc(-c3ccnc(C(F)(F)F)c3)c2)cn1` [Example 95, N-((5-((2′-(trifluoromethyl)-[2,4′-bipyridin]-4-yl)oxy)pyridin-2-yl)carbamoyl)pivalamide], the IC50 is 0.01 to 0.1 µM in experiment [1]; more than 1 µM in experiment [2]; more than 1 µM in experiment [3]; 0.01 to 0.1 µM in the experiment on osteoclast precursors; 0.1 to 1 µM in the experiment with M-NFS-60 cells.
As for `Cc1ccc(-c2cc(Oc3ccc(NC(=O)NC(=O)C4CCCC4)nc3C)ccn2)cn1` [Example 100, N-((6-methyl-5-((6′-methyl-[2,3′-bipyridin]-4-yl)oxy)pyridin-2-yl)carbamoyl)cyclopentanecarboxamide], the IC50 in experiment [1] was less than 0.01 µM; in experiment [2] it was 0.01 to 0.1 µM; in experiment [3] it was more than 1 µM; in the experiment on osteoclast precursors it was less than 0.01 µM; with M-NFS-60 cells, 0.01 to 0.1 µM.
For the compound `Cn1cc(-c2cc(Oc3ccc(NC(=O)NC(=O)C4(C(F)(F)F)CCC4)nc3)ccn2)cn1` [Example 101, N-((5-((2-(1-methyl-1H-pyrazol-4-yl)pyridin-4-yl)oxy)pyridin-2-yl)carbamoyl)-1-(trifluoromethyl)cyclobutanecarboxamide], the IC50 in experiment [1] was less than 0.01 µM; in experiment [2], 0.1 to 1 µM; in experiment [3] it was less than 0.01 µM; in the experiment on osteoclast precursors, 0.01 to 0.1 µM; in the experiment on M-NFS-60 cells, less than 0.01 µM.
Regarding `Cc1nc(NC(=O)NC(=O)C2(C(F)(F)F)CCC2)ccc1Oc1ccnc(-c2cnn(C)c2)c1` [Example 102, N-((6-methyl-5-((2-(1-methyl-1H-pyrazol-4-yl)pyridin-4-yl)oxy)pyridin-2-yl)carbamoyl)-1-(trifluoromethyl)cyclobutanecarboxamide], the IC50 was less than 0.01 µM in experiment [1]; 0.1 to 1 µM in experiment [2]; 0.1 to 1 µM in experiment [3]; 0.01 to 0.1 µM in the experiment on osteoclast precursors; less than 0.01 µM in the experiment on M-NFS-60 cells.
As to `CNc1ccc(-c2cc(Oc3ccc(NC(=O)NC(=O)C(C)(C)C)nc3)ccn2)cn1` [Example 105, N-((5-((6′-(methylamino)-[2,3′-bipyridin]-4-yl)oxy)pyridin-2-yl)carbamoyl)pivalamide], the IC50 in experiment [1] is less than 0.01 µM; in experiment [2], 0.1 to 1 µM; in experiment [3] it was 0.1 to 1 µM; in the experiment on osteoclast precursors, less than 0.01 µM; in the experiment with M-NFS-60 cells, 0.01 to 0.1 µM.
Take `CC(C)(C)C(=O)NC(=O)Nc1ccc(Oc2ccnc(-c3ccc(N)nc3)c2)cn1` [Example 106, N-((5-((6′-amino-[2,3′-bipyridin]-4-yl)oxy)pyridin-2-yl)carbamoyl)pivalamide]: the IC50 in experiment [1] is less than 0.01 µM; in experiment [2], 0.1 to 1 µM; in experiment [3], more than 1 µM; with osteoclast precursors, less than 0.01 µM; in the experiment on M-NFS-60 cells, less than 0.01 µM.
For `CCC(=O)NC(=O)Nc1ccc(Oc2ccnc(-c3ccc(C)nc3)c2)cn1` [Example 108, N-((5-((6′-methyl-[2,3′-bipyridin]-4-yl)oxy)pyridin-2-yl)carbamoyl)propionamide], the IC50 in experiment [1] was 0.01 to 0.1 µM; in experiment [2], more than 1 µM; in experiment [3], more than 1 µM; with osteoclast precursors, 0.01 to 0.1 µM; in the experiment on M-NFS-60 cells, more than 1 µM.
As for `Cc1nc(NC(=O)NC(=O)C(C)(C)C)ccc1Oc1ccnc(-c2ccc(C3CCN(C)CC3)cc2)c1` [Example 109, N-((6-methyl-5-((2-(4-(1-methylpiperidin-4-yl)phenyl)pyridin-4-yl)oxy)pyridin-2-yl)carbamoyl)pivalamide], the IC50 in experiment [1] is less than 0.01 µM; in experiment [2] it was 0.1 to 1 µM; in experiment [3] it was 0.1 to 1 µM; in the experiment on osteoclast precursors it was 0.01 to 0.1 µM; in the experiment with M-NFS-60 cells, less than 0.01 µM.
For `COC(C)(C)C(=O)NC(=O)Nc1ccc(Oc2ccnc(-c3ccc(C#N)nc3)c2)c(C)n1` [Example 110, N-((5-((6′-cyano-[2,3′-bipyridin]-4-yl)oxy)-6-methylpyridin-2-yl)carbamoyl)-2-methoxy-2-methylpropanamide], the IC50 was 0.01 to 0.1 µM in experiment [1]; more than 1 µM in experiment [2]; more than 1 µM in experiment [3]; 0.01 to 0.1 µM in the experiment with osteoclast precursors; 0.1 to 1 µM with M-NFS-60 cells.
In the case of `Cc1cc(NC(=O)NC(=O)C(C)(C)C)nc(C)c1Oc1ccnc(-c2cnn(C)c2)c1` [Example 116, N-((4,6-dimethyl-5-((2-(1-methyl-1H-pyrazol-4-yl)pyridin-4-yl)oxy)pyridin-2-yl)carbamoyl)pivalamide], the IC50 in experiment [1] is less than 0.01 µM; in experiment [2], 0.01 to 0.1 µM; in experiment [3], 0.01 to 0.1 µM; with osteoclast precursors, 0.01 to 0.1 µM; in the experiment with M-NFS-60 cells, 0.01 to 0.1 µM.
In the case of `Cc1cc(NC(=O)NC(=O)C2CCOCC2)nc(C)c1Oc1ccnc(-c2cnn(C)c2)c1` [Example 117, N-((4,6-dimethyl-5-((2-(1-methyl-1H-pyrazol-4-yl)pyridin-4-yl)oxy)pyridin-2-yl)carbamoyl)tetrahydro-2H-pyran-4-carboxamide], the IC50 was less than 0.01 µM in experiment [1]; 0.01 to 0.1 µM in experiment [2]; 0.1 to 1 µM in experiment [3]; 0.01 to 0.1 µM with osteoclast precursors; 0.01 to 0.1 µM in the experiment with M-NFS-60 cells.
As for `Cc1nc(NC(=O)NC(=O)C(C)(C)C)ccc1Oc1ccnc(-c2ccc(N3CCN(C)CC3)cc2)c1` [Example 118, N-((6-methyl-5-((2-(4-(4-methylpiperazin-1-yl)phenyl)pyridin-4-yl)oxy)pyridin-2-yl)carbamoyl)pivalamide], the IC50 was less than 0.01 µM in experiment [1]; 0.01 to 0.1 µM in experiment [2]; 0.1 to 1 µM in experiment [3]; 0.01 to 0.1 µM with osteoclast precursors; 0.01 to 0.1 µM in the experiment on M-NFS-60 cells.
`Cc1cn(-c2cc(Oc3ccc(NC(=O)NC(=O)C(C)C)nc3C)ccn2)cn1` [Example 134, N-((6-methyl-5-((2-(4-methyl-1H-imidazol-1-yl)pyridin-4-yl)oxy)pyridin-2-yl)carbamoyl)isobutyramide]: the IC50 was 0.01 to 0.1 µM in experiment [1]; more than 1 µM in experiment [2]; more than 1 µM in experiment [3]; 0.01 to 0.1 µM in the experiment on osteoclast precursors; 0.1 to 1 µM with M-NFS-60 cells.
Turning to `Cc1cn(-c2cc(Oc3ccc(NC(=O)NC(=O)C4CCOC4)nc3C)ccn2)cn1` (centres unmarked) [Example 136, N-((6-methyl-5-((2-(4-methyl-1H-imidazol-1-yl)pyridin-4-yl)oxy)pyridin-2-yl)carbamoyl)tetrahydrofuran-3-carboxamide], the IC50 was 0.1 to 1 µM in experiment [1]; more than 1 µM in experiment [2]; more than 1 µM in experiment [3]; 0.1 to 1 µM in the experiment on osteoclast precursors; 0.1 to 1 µM in the experiment with M-NFS-60 cells.
For `CCC(=O)NC(=O)Nc1ccc(Oc2ccnc(-c3cn(C)cn3)c2)cn1` [Example 138, N-((5-((2-(1-methyl-1H-imidazol-4-yl)pyridin-4-yl)oxy)pyridin-2-yl)carbamoyl)propionamide], the IC50 is 0.1 to 1 µM in experiment [1]; more than 1 µM in experiment [2]; more than 1 µM in experiment [3]; 0.01 to 0.1 µM with osteoclast precursors; 0.1 to 1 µM in the experiment on M-NFS-60 cells.
For the compound `COC(C)(C)C(=O)NC(=O)Nc1ccc(Oc2ccnc(-c3cnc(C)n3C)c2)cn1` [Example 139, N-((5-((2-(1,2-dimethyl-1H-imidazol-5-yl)pyridin-4-yl)oxy)pyridin-2-yl)carbamoyl)-2-methoxy-2-methylpropanamide], the IC50 in experiment [1] was 0.1 to 1 µM; in experiment [2] it was more than 1 µM; in experiment [3], more than 1 µM; in the experiment with osteoclast precursors, 0.01 to 0.1 µM; in the experiment on M-NFS-60 cells it was 0.1 to 1 µM.
`CCc1nc(NC(=O)NC(=O)C2(OC)CC2)ccc1Oc1ccnc(-c2cnn(C)c2)c1` [Example 141, N-((6-ethyl-5-((2-(1-methyl-1H-pyrazol-4-yl)pyridin-4-yl)oxy)pyridin-2-yl)carbamoyl)-1-methoxycyclopropanecarboxamide]: the IC50 was 0.01 to 0.1 µM in experiment [1]; more than 1 µM in experiment [2]; more than 1 µM in experiment [3]; 0.01 to 0.1 µM in the experiment with osteoclast precursors; 0.1 to 1 µM in the experiment on M-NFS-60 cells.
On to `Cc1cn(-c2cc(Oc3cnc(NC(=O)NC(=O)C(C)(C)C)cc3C)ccn2)cn1` [Example 148, N-((4-methyl-5-((2-(4-methyl-1H-imidazol-1-yl)pyridin-4-yl)oxy)pyridin-2-yl)carbamoyl)pivalamide], for which the IC50 in experiment [1] is less than 0.01 µM; in experiment [2], 0.01 to 0.1 µM; in experiment [3], more than 1 µM; in the experiment on osteoclast precursors, 0.01 to 0.1 µM; in the experiment on M-NFS-60 cells it was less than 0.01 µM.
